This is an account of results in US5272141A, “Contraceptive and menstrual cycle controlling drug having oncostatic therapeutic properties for treatment of mammary tumors and melanomas, and method therefor” (priority 1990, dated 1993).

Series [1] has as its system preventing undesired pregnancies. To be noted: cited from earlier work.
Series [2] concerns cell cultures, neoplasms and hyperplasias. To be noted: humans; cited from earlier work.
Series [3] has the same test system. The conditions noted are these: laboratory animals; cited from earlier work.
The subject of the next series is female patients. Put plainly: Clinical experimentation of associations used as contraceptives in eighty two female patients. The series is classed as in vivo, human. The conditions noted are these: doses lower than those of melatonin.
Series [4] in a line: Biological activity in vivo and in vitro in respect to melatonin. The conditions noted are these: both in vivo and in vitro.
The test system of series [5] is ovarian cell line SK-OV-3. The series is described as follows: Growth inhibition of ovarian cell line SK-OV-3. The series is classed as cell-based, human. The conditions noted are these: in vitro.
The subject of another series is ovarian cell line JA. The series is described as follows: Growth inhibition of ovarian cell line JA. It is filed as cell-based, human. The conditions noted are these: in vitro.
A further series deals with bladder carcinoma RT-112. The series is described as follows: Growth inhibition of bladder carcinoma RT-112. The series is classed as cell-based, human. The conditions noted are these: in vitro.
Series [6] relates to mammary carcinoma MCF-7 cells. The series is described as follows: Growth inhibition of mammary carcinoma MCF-7 cells. To be noted: in vitro. The series is classed as cell-based, human.
The test system of series [7] is primary cultures of metastatic nodules of a human malignant melanoma. Put plainly: Growth inhibition in primary cultures of metastatic nodules of a human malignant melanoma. The series is classed as cell-based. To be noted: in vitro. The text has this:
(§1) In our studies and experiments we have obtained an inhibition greater than 75% of the growth in primary cultures of metastatic nodules of a human malignant melanoma upon treatment in "vitro" with 2-iodomelatonin and 2-bromomelatonin and in primary cultures from different human melanomas, a growth inhibition has been obtained in 6 of 11 patients studied.

For series [8], the system named is primary cultures from different human melanomas. The series is described as follows: Growth inhibition in primary cultures from different human melanomas. The series is classed as cell-based.
From the text: as §1

A further series concerns B-16 melanoma. Put plainly: Lung metastasis and local tumor growth in mice implanted with B-16 melanoma. The series is classed as in vivo. From the text:
(§2) The results obtained in our laboratories, however, have demonstered that 2-iodomelatonin and 2-bromomelatonin cause a reduction both in the number of the lung metastasis and of the local growth of tumors in mice inplanted with B-16 melanoma or MS-2 fibrosarcoma cells.

A further series has as its system MS-2 fibrosarcoma cells. Put plainly: Lung metastasis and local tumor growth in mice implanted with MS-2 fibrosarcoma cells. It is filed as in vivo.
From the text: as §2

A further series has as its system normal tissues. The series is described as follows: Binding in normal tissues.
The subject of another series is neoplastic tissues. Put plainly: Binding in neoplastic tissues. The conditions noted are these: compared with normal tissues.
Series [9] concerns tumors. Put plainly: Long term treatment: arrest and partial regression of tumors in human. It is filed as in vivo. The conditions noted are these: in some cases.
For series [10], the system named is cellular membranes of melanoma. The series is described as follows: Binding to cellular membranes of melanoma.
In series [11] the test system is cellular membranes of mammary gland cancer. Put plainly: Binding to cellular membranes of mammary gland cancer.
For series [12], the system named is cellular membranes of cellular lines infected with oncogenic viruses. The series is described as follows: Binding to cellular membranes of cellular lines infected with oncogenic viruses.
Series [13] can be described thus: Hematic, biochemical, electrophoretic, organ, bone marrow and histological toxicity tests. To be noted: in vivo. From the text:
The haematochemical, electrophoretic tests, and the tests for determining the status and weight of organs, bone marrow, and the hystological tests have not shown any particular toxicity and, based on these observations, which show the low toxicity of the individual compounds and associations, a favourable opinion has been released about the starting of the clinical experimentation.

A short description of a further series: Acute toxicity in rats. To be noted: rat, in vivo; for LD50: po, per os, read-out: DL50 (the source's name). As for the experimental part:
(§3) In the specific case of melatonin, acute
1) Rats, intraperitoneally
2) Rats, per os DL50 = greater than
(§4) (observation period 14 days)
the symbol DL50 means the amount of material which kills 50% of the
(§5) With respect to the toxicity of 2-iodomelatonin and 2-bromomelatonin, the acute toxicity tests have been carried out:
1) in rats per os: DL50 greater than 200 mg/Kg

A further series is described as follows: Acute toxicity in mice. To be noted: mouse, in vivo, read-out: DL50 (the source's name). As for the experimental part: as §5
2) in mice per os and intraperitoneally: DL50 greater than 100 mg/Kg.

The test system of series [14] is human neoplastic cell lines. Put plainly: Oncostatic effects in vitro. It is filed as cell-based.
Series [15] has as its system tumors. The series is described as follows: Oncostatic effects in vivo.
Series [16] relates to stimulated dopamine release in the retina. To be noted: cited from earlier work.
Another series relates to estrogen receptor. Put plainly: Estrogen receptor number in MCF-7. It is filed as cell-based, human.
The nature of another series: in vivo. On the set-up: species or system rabbits. The conditions noted are these: rabbit, iv.
From the text: as §3
3) rabbits, intravenously
as §4
(§6) the symbol DL50 means the amount of material which kills 50% of the […]

Series [17] can be described thus: Sub-acute toxicity in rats. The conditions noted are these: rat, in vivo, sc, subcutaneously, observation period 25 days, read-out: DL50.
From the text: and the sub-acute toxicity in:
(observation period 25 days).
as §6

The next series has as its system human contraception. The conditions noted are these: comparatively high doses; cited from earlier work.

“Also recorded” adds a separate entry of the source. Like-named read-outs stand apart in the source and are kept apart here. Bounds are passed on as bounds.

Description for female patients: With respect to the clinic experimentation, preliminary tests has been carried out on eighty two female patients, having an age between 18 and 46 years, with the following associations of the disclosed substances:
a) melatonin and norethisterone with doses per day of respectively 100-200 mg and 0.30-0.50 mg:
b) melatonin and 1-norgestrel with doses per day of respectively 100-200 mg and 0.08-0.16 mg;
c) 2-iodomelationin and norethisterone with doses per day of respectively 20-40 mg and 0.30-0.50 mg; mg;
d) 2-iodomelatonin and norgestrel with doses per day of respectively 20-40 mg and 0.35-0.80 mg;
e) 2-iodomelatonin and 1-norgestrel with doses per day of respectively 20-40 mg and 0.08-0.16 mg;
f) 2-bromomelatonin and norethisterone with doses per day of respectively 25-50 mg and 0.30-0.50 mg;
g) 2-bromomelatonin and norgestrel with doses per day of respectively 20-40 mg and 0.35-0.80.
h) 2-bomromelatonin and 1-norgestrel with doses pro die of respectively 20-40 mg and 0.08-0.16 mg.

Consider `C#C[C@]1(O)CC[C@H]2[C@@H]3CCC4=CC(=O)CC[C@@H]4[C@H]3CC[C@@]21CC` [1-norgestrel], for which the “contraceptive results compared with norethisterone mini-pill” value in [1] (reduced doses (0.08-0.16 mg)) is “better results”.
In the case of `COc1ccc2[nH]c([125I])c(CCNC(C)=O)c2c1` [2-(125I)-iodomelatonin], the binding entry was “specific and saturable binding” in series [2]; “specific and saturable binding” in [3].
As for `COc1ccc2[nH]c(Br)c(CCNC(C)=O)c2c1` [2-bromomelatonin, N-acetyl-2-bromo-5-methoxytriptamine], the “dose reduction relative to melatonin (times lower)” value in the series with female patients is “five to ten”. In [4], the “activity relative to that of melatonin (times higher)” value is on record as “seven to ten”. Also, the “inhibition of the growth” value is given as “dose-dependant inhibition of the growth” in series [5]; “dose-dependant inhibition of the growth” in the series with ovarian cell line JA; “dose-dependant inhibition of the growth” in the series with bladder carcinoma RT-112; “dose-dependant inhibition of the growth; also recorded: inhibited the growth of the cellular lines MCF-7 in a dose dependant manner” in series [6]; “greater than 75%” in series [7]. Further, the “growth inhibition obtained (patients responding of patients studied)” value in [8] was 6 of 11. The “local growth of tumors” value in the series on B-16 melanoma and with MS-2 fibrosarcoma cells was “reduction” throughout. The “number of the lung metastasis” value with B-16 melanoma and in the series on MS-2 fibrosarcoma cells was “reduction” throughout. Also, in the series on normal tissues, the binding entry was “high affinity, saturable and specific”. In the series on neoplastic tissues, the binding affinity result is listed as “much lower”. In addition, in the series on tumors [9], the “tumor arrest and regression” value is “arrest and partial regression of tumors”. The “binding to cellular membranes” value in [10], in series [11] and in [12] was “bind to the cellular membranes” throughout. The “toxicity in hematic, biochemical, electrophoretic, organ, bone marrow and histological tests” value (“toxicity … bone marrow and histological tests” below) in series [13] is given as “have not shown any particularly toxicity”. In addition, the LD50 was more than 200 mg/kg in “Acute toxicity in rats”; more than 100 mg/kg in “Acute toxicity in mice” (ip, intraperitoneally); more than 100 mg/kg in “Acute toxicity in mice” (po, per os). The oncostatic effects result (in series [14]; in the series on tumors [15]) was “Powerful oncostatic effects” in each case. Further, the “inhibition of stimulated dopamine release” value in series [16] is “potent inhibitors”.
For `COc1ccc2[nH]c(I)c(CCNC(C)=O)c2c1` [2-iodomelatonin, N-acetyl-2-iodo-5-methoxytriptamine], the “dose reduction relative to melatonin (times lower)” value with female patients is listed as “five to ten”. The “activity relative to that of melatonin (times higher)” value in [4] is “seven to ten”. For the same molecule, the “inhibition of the growth” value in [5] is “dose-dependant inhibition of the growth”; in the series with ovarian cell line JA, “dose-dependant inhibition of the growth”; in the series with bladder carcinoma RT-112, “dose-dependant inhibition of the growth”; in series [6], “dose-dependant inhibition of the growth; also recorded: inhibited the growth of the cellular lines MCF-7 in a dose dependant manner”; in series [7], “greater than 75%”. The “growth inhibition obtained (patients responding of patients studied)” value in series [8] was 6 of 11. Besides, the “local growth of tumors” value in the series on B-16 melanoma and in the series with MS-2 fibrosarcoma cells was “reduction” throughout. The “number of the lung metastasis” value with B-16 melanoma and in the series on MS-2 fibrosarcoma cells was “reduction” each time. The binding result in the series with normal tissues is “high affinity, saturable and specific”. The binding affinity entry with neoplastic tissues was “much lower”. In the series with tumors [9], the “tumor arrest and regression” value was “arrest and partial regression of tumors”. For the same molecule, the “binding to cellular membranes” value in [10], in series [11] and in series [12] was “bind to the cellular membranes” each time. Further, in series [13], the “toxicity … bone marrow and histological tests” value is “have not shown any particularly toxicity”. In addition, the LD50 in “Acute toxicity in rats” was more than 200 mg/kg; in the series “Acute toxicity in mice” (ip, intraperitoneally), more than 100 mg/kg; in “Acute toxicity in mice” (po, per os), more than 100 mg/kg. In addition, the oncostatic effects entry (in [14]; with tumors [15]) was “Powerful oncostatic effects” throughout. The “inhibition of stimulated dopamine release” value in [16] is reported as “potent inhibitors”.
Consider `C#C[C@]1(O)CC[C@H]2[C@@H]3CCC4=CC(=O)CC[C@@H]4[C@H]3CC[C@@]21C` [Norethisterone, norethisterone], for which the undesired pregnancies entry in series [1] (mini-pill, alone) was “about 2.35%”.
In the case of `COc1ccc2[nH]cc(CCNC(C)=O)c2c1` [melatonin, reference compound], the estrogen receptor number entry in the series with estrogen receptor is reported as “temporarily caused an increase of the estrogen receptor number”. In addition, in the series with normal tissues, the binding entry was “high affinity, saturable and specific”. Also, the binding affinity result with neoplastic tissues is reported as “much lower”. In addition, the “tumor arrest and regression” value in the series with tumors [9] is “arrest and partial regression of tumors”. Moreover, in [13], the “toxicity … bone marrow and histological tests” value is “have not shown any particularly toxicity”. Also, the LD50 at 336 h stood at 462 mg/kg in the series “Acute toxicity in rats” (ip, intraperitoneally, observation period 14 days, read-out: DL50) and 394 mg/kg in the series “in vivo”. Besides, the LD50 in “Acute toxicity in rats” (observation period 14 days) is more than 800 mg/kg. For the same molecule, the LD50 at 600 h in series [17] is more than 192 mg/kg. In the series with human contraception, the “dose required to express contraceptive action” value was 100 to 200 mg. In addition, the “inhibition of stimulated dopamine release” value in [16] is “potent inhibitors of stimulated dopamine release in this organ, very much like melatonin”.
